# Measurements reported in patent publication US20180264191A1, “SYSTEMS AND METHODS FOR NEURAL DRUG DELIVERY AND MODULATION OF BRAIN ACTIVITY” (priority 2017, published 2018).
# Columns and labels:
# [1] = system: local neuronal activity in the neocortex; assay: Unit firing and local field potential recording with serial infusions through L-MiNDS in awake head-fixed monkey; type: in vivo, rhesus macaque (Macaca mulatta); details: for rate of detected spike activity (local unit firing): muscimol 2 mg/ml in aCSF, 500 nl at 100 nl/min for 5 mins
# Experimental: The functionality of the system (specifically, the L-MiNDS) was confirmed in a large, awake behaving animal model, the rhesus macaque (macacca mulatta) monkey. The L-MiNDS was used to modulate and monitor local neuronal activity in the neocortex of a head-fixed monkey through serial infusions of aCSF and muscimol, which respectively preserve and inhibit baseline unit firing activity, as depicted in FIG. 21A. The 1st vertical line on left indicates the start of aCSF infusion (at 20 mins) and the 2nd vertical line denotes the muscimol infusion (at 63.7 mins). The impedance measurement of the W-electrode was 1.5 MΩ in brain and at pre-implantation in saline was 2 MΩ. Modulation of neuronal firing activity was monitored by recording signals at the MiNDS electrode adjoining the infusion ports. […] Then, aCSF was infused for 5 mins 20 s at an infusion rate of 100 nl/min. This control infusion had minimal effect on the local firing rate and unit waveform during and after the infusion. Muscimol was then infused at the same location for 5 mins at infusion rate of 100 nl/min. […] Vertical and horizontal bars denote 10 μV and 2 ms, respectively.
# A second experiment was conducted targeting deeper layers of the neocortical region (i.e., dorsal bank of the cingulate cortex) to determine if recovery of the reduced neural activity through an additional infusion of aCSF could be induced at this adjoining site. This larger infusion of aCSF was indeed effective in reversing the inhibitory effect of muscimol, as shown by the observation of an increasing frequency of spikes with waveforms closely resembling those found during the pre-muscimol period, as depicted in FIGS. 23A-23C. In particular, the 1st vertical line on left in FIG. 23A denotes the start of aCSF infusion (at 20 mins), the second vertical line represents the start of muscimol infusion (at 43 mins), and the third vertical line denotes the start of aCSF infusion (at 92 mins). In FIG. 23Cm vertical and horizontal bars denote 10 μV and 2 ms, respectively. […] Compared to prior work, this is the first system that allows serial infusion of multiple distinct solutions to be delivered in a focal, independent manner in a NHP. The system's integrated electrode can also be used to record local field potentials (LFPs), as shown in FIGS. 24A and 24B, which may be important for clinical applications that may require chronic recording from a fixed brain location. For example, pathological beta-band LFP in Parkinson's disease and/or epileptic discharges in epilepsy could be recorded from the chronically integrated electrode to track and treat dysfunction in future applications. In FIG. 24A, two curves for each period represent 95% confidence intervals. Each pair of curves correspond to signals averaged over 10 mins periods as labeled in the legend at the top right of each plot. […] Alpha (5-11 Hz) and beta (11-30 Hz) band power fluctuate without correlation to the infusions. The prominent power at 60 Hz is due to coupling of power mains noise. […]
# Solutions used for infusion through the MiNDS were aCSF (artificial cerebrospinal fluid, Tocris Biosciences) and muscimol (2 mg/ml in aCSF, Sigma-Aldrich). The MiNDS and guide cannula were sonicated in a detergent solution (Alconox, Inc.), rinsed with water, and then sonicated and soaked in 70% ethanol followed by water until they were ready for implantation. […]
# [2] = system: substantia nigra (SN); assay: Behavioral study: rotations after unilateral infusion into the substantia nigra through S-MiNDS with iPrecio pumps; type: in vivo; details: rat
# Experimental: The capability of interfacing the system with deep brain structures to remotely control behavior was tested. In experiments in rats, the S-MiNDS was implanted in the SN and was connected to two implanted iPrecio pumps, containing either saline or muscimol. Unilateral delivery of muscimol to the SN is known to evoke preferential ipsilateral rotation, reflecting a hemiparkinsonian state. […] These studies were performed multiple times on each of multiple animals. This illustrates the ability of system to repeatedly and reproducibly deliver small volumes of drug to effect a reversible behavioral change.
# A similar protocol as described above was used to implant the MiNDS with the iPrecio pumps. Rats were anesthetized, and their heads were shaved and disinfected. A longer incision was made to accommodate the insertion of the pumps. As aforementioned, the MiNDS burr hole was made 5 mm posterior to the bregma and 2.5 mm lateral to the midline, and a support screw burr hole was made 3 mm posterior and 2 mm lateral to the bregma, on the opposite side. The screw was implanted, such that 1 mm protruded beneath the skull. A subcutaneous cavity for the pump was made by blunt dissection, and the pump was inserted through the incision. The MiNDS probe was implanted and cemented to the skull using C&B Metabond adhesive (Parkell Inc., Edgewood N.Y.) and Orthojet dental cement (Lange Dental, Wheeling, Ill. USA), and the incision was closed using 5-0 monofilament non-resorbable suture and 3M tissue glue. Animals were closely observed during the recovery period and given analgesics and wet food. By 1 week post-surgery, in all cases animals were ambulatory and otherwise healthy. Animals implanted with pumps were used for the behavioral studies described below. […]
# A rat was implanted with the MiNDS and two pumps pre-loaded and flushed with either saline or muscimol, as described above. The animal was placed within the dish and recorded over the course of 5 hrs. […]
# Videos were imported into Ethovision, where they were analyzed for ipsilateral and contralateral rotations over time. […]
# [3] = system: hippocampal (CA1) unit; assay: Acute tetrode recording with local micro-injection through MiNDS in anesthetized rats; type: in vivo; details: anesthetized rat
# Experimental: Acute electrophysiological recordings and micro-injections were performed in anesthetized rats to test the system with a tetrode W electrode. […] The channel impedance values of the tetrode electrode (T-1, T-2, T-3, T-4) were 430, 370, 440, and 370 kΩ. […] The mean of the action potentials recorded from this unit was stable during the experiment (i.e. before first saline infusion, before first and second muscimol infusions), confirming that the unit was present during the trial, as shown in FIGS. 18A-C. […] Peak 1 and Peak 2 are the maximal value of waveforms measured by T-1, T-2, respectively. The projections of the peak values calculated from each recorded action potential are shown in FIG. 18C, reflecting the cluster-cutting used to isolate signals coming from different neurons. […]
# The dura was removed and the device was lowered into the brain to a depth of 2.5 mm and a location with unit activity was identified. The local neural signals were recorded with Open Ephys GUI software. Prior to drug infusion, the local signals were recorded for 30 mins to ensure stable spikes were located. After the baseline recording, 150 nl of saline were infused into the site at a flow rate of 100 nl/min and the activity was recorded for another 30 mins. […] Recording was recorded for another 30 mins post muscimol infusion. […]
# [4] = 1.67 μl of muscimol (0.2 mg/ml) into SN, 180° turns
smiles,measurement,setting,value
NCc1cc(=O)[nH]o1 [muscimol],LFP power for alpha frequencies,[1]; after muscimol infusion,persists
same,"LFP power for broadband, beta, and gamma frequency ranges",[1]; after muscimol infusion,decreases significantly
same,LFP broadband power from 30-100 Hz,"[1]; after muscimol infusion, 10 mins intervals",decreases immediately following muscimol infusion
same,rate of detected spike activity (local unit firing),[1],immediately suspended activity
same,rate of detected spike activity (local unit firing),[1]; listed as Muscimol,immediately decreased the rate of detected spike activity
same,counter-clockwise rotations,[2]; [4],remained the same
same,increase in the number of clockwise rotations,[2]; [4],52 fold
same,parkinsonian behavior (preferential ipsilateral rotation),[2]; remotely controlled infusion of 1.67 μl of muscimol (0.2 mg/ml) into SN,reliably induced
same,firing rate of hippocampal (CA1) unit after first muscimol injection,"[3]; local infusion via iPrecio pump, first muscimol infusion at 60 mins",a slow decrease of the firing rate occurred
same,rate of detected spike activity of hippocampal (CA1) unit after second muscimol injection,[3]; second muscimol infusion at 90 mins,abolished the rate of detected spike activity
